Ki data for three compounds are collected here from ChEMBL document CHEMBL1140609, “Carbonic anhydrase inhibitors. Inhibition of transmembrane isozymes XII (cancer-associated) and XIV with anions” (Bioorg Med Chem Lett, 2007).

The target in one assay is Carbonic anhydrase 12 (Homo sapiens, UniProt O43570). Nature of the assay: Inhibition of human recombinant catalytic domain CA12.
The next assay concerns the target Carbonic anhydrase 14 (Homo sapiens, UniProt Q9ULX7). Nature of the assay: Inhibition of human recombinant full length CA14.
The next assay deals with Carbonic anhydrase 9 (Homo sapiens, UniProt Q16790). Nature of the assay: Inhibition of human recombinant catalytic domain CA9.

The structures appear in SMILES notation. pKi: −log10 of the molar value.

Sequence of Carbonic anhydrase 14 (Q9ULX7 whole entry, the tested form may be a part): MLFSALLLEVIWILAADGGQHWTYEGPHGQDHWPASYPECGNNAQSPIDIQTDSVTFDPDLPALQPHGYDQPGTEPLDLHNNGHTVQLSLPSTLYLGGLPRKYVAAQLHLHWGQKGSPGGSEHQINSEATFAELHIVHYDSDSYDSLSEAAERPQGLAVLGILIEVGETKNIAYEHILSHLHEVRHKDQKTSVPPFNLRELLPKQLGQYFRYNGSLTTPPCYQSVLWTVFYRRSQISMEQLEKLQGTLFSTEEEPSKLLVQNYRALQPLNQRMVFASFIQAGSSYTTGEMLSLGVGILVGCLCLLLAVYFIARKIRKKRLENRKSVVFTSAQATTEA
Sequence of Carbonic anhydrase 12 (O43570 whole entry, the tested form may be a part): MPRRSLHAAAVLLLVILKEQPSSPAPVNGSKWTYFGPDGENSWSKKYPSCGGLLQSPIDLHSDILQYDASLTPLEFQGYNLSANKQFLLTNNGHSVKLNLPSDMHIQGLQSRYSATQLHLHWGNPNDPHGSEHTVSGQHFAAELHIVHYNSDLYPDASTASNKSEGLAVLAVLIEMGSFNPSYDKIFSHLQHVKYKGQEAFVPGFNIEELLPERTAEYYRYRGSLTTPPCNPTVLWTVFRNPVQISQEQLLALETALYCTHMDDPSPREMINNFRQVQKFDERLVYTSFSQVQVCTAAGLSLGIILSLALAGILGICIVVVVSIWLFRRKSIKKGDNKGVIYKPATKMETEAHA

Usually pKi stands for the Ki on a negative log10 scale, so that one unit is a factor of ten. Consider `OB(O)c1ccccc1` [PHENYLBORONIC ACID], for which the pKi at Carbonic anhydrase 12 was 3.10; at Carbonic anhydrase 14, 4.04.
Consider `NS(=O)(=O)O` [SULFAMATE], for which the figures for the pKi on Carbonic anhydrase 9, at Carbonic anhydrase 12 and at Carbonic anhydrase 14 were 4.04, 3.15 and 2.96, respectively.
As to `NS(N)(=O)=O` [SULFAMIDE], the pKi was 3.08 on Carbonic anhydrase 12 and 3.12 at Carbonic anhydrase 14.
